Data on three molecules can be found in ChEMBL document CHEMBL4152181, “Resolvins as proresolving inflammatory mediators in cardiovascular disease” (Eur J Med Chem, 2018).

The nature of the data set: Half life in air at 10 to 20 ug by HPLC analysis. The class given is physicochemical.

What is called half-life is the time in which the quantity being followed falls by half. Take `CC[C@@H](O)/C=C/C=C\C[C@@H]1C[C@@H]1C/C=C\C=C\[C@@H](O)CCCC(=O)O`: the half-life was 35 h.
Under `CC[C@@H](O)/C=C/C=C\C/C=C\C/C=C\C=C\[C@@H](O)CCCC(=O)O` stands 1.5 h; under `CC[C@@H](O)/C=C/C=C\C[C@H]1C[C@H]1C/C=C\C=C\[C@@H](O)CCCC(=O)O`, 35 h.
